Laboratory results taken from ChEMBL document CHEMBL1201861, “Genomics of Drug Sensitity in Cancer screening data, Wellcome Trust Sanger Institute”.

What was measured:
Test in all cases: cells
Conditions in all cases: Homo sapiens
CP66-MEL = assay type: functional, cell-based;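 also: growth inhibition of CP66-MEL cells determined in a cell viability assay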
Description: SANGER: Inhibition of human CP66-MEL cell growth in a cell viability assay.

CTB-1 = assay type: functional, cell-based
Description: SANGER: Inhibition of human CTB-1 cell growth in a cell viability assay.

CW-2 = assay type: functional, cell-based;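 also: growth inhibition of CW-2 cells, read out by a cell viability assay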
Description: SANGER: Inhibition of human CW-2 cell growth in a cell viability assay.

D283 Med = assay type: functional, cell-based
Description: SANGER: Inhibition of human D-283MED cell growth in a cell viability assay.

D-502MG = assay type: functional, cell-based
Description: SANGER: Inhibition of human D-502MG cell growth in a cell viability assay.

DMS-114 = assay type: functional, cell-based
DMS-79 = assay type: functional, cell-based;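 also: growth inhibition measured with a cell viability assay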
Description: SANGER: Inhibition of human DMS-79 cell growth in a cell viability assay.

DU-4475 = assay type: functional, cell-based
Description: SANGER: Inhibition of human DU-4475 cell growth in a cell viability assay.

EC-GI-10 = assay type: functional, cell-based
Description: SANGER: Inhibition of human EC-GI-10 cell growth in a cell viability assay.

ES1 = assay type: functional, cell-based
Description: SANGER: Inhibition of human ES1 cell growth in a cell viability assay.

ES3 = assay type: functional, cell-based;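 also: growth inhibition of ES3 cells, read out with a cell viability assay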
Description: SANGER: Inhibition of human ES3 cell growth in a cell viability assay.

ES6 = assay type: functional, cell-based;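 also: growth inhibition of human ES6 cells, read out with a cell viability assay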
Description: SANGER: Inhibition of human ES6 cell growth in a cell viability assay.

ES7 = assay type: functional, cell-based;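 also: growth inhibition of cultured human ES7 cells, read out as cell viability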
Description: SANGER: Inhibition of human ES7 cell growth in a cell viability assay.

GB-1 = assay type: functional, cell-based;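 also: growth of GB-1 cells judged by a viability assay, IC50 marks the concentration inhibiting growth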
Description: SANGER: Inhibition of human GB-1 cell growth in a cell viability assay.

GI-1 = assay type: functional, cell-based
Description: SANGER: Inhibition of human GI-1 cell growth in a cell viability assay.

HCC2218 = assay type: functional, cell-based;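 also: cell viability assay read-out, with IC50 given as the concentration that inhibits growth of the cell line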
Description: SANGER: Inhibition of human HCC2218 cell growth in a cell viability assay.

HDLM-2 = assay type: functional, cell-based;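 also: cell viability assay measuring suppression of HDLM-2 proliferation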
Description: SANGER: Inhibition of human HDLM-2 cell growth in a cell viability assay.

HT = assay type: functional, cell-based
Description: SANGER: Inhibition of human HT cell growth in a cell viability assay.

IST-MES1 = assay type: functional, cell-based;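 also: growth inhibition of IST-MES1 cells, measured with a cell viability assay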
Description: SANGER: Inhibition of human IST-MES1 cell growth in a cell viability assay.

J-RT3-T3-5 = assay type: functional, cell-based;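 also: cell viability assay measuring growth inhibition of human J-RT3-T3-5 cells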
Description: SANGER: Inhibition of human J-RT3-T3-5 cell growth in a cell viability assay.

JVM-3 = assay type: functional, cell-based;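 also: growth inhibition of human JVM-3 cells, read out with a cell viability assay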
Description: SANGER: Inhibition of human JVM-3 cell growth in a cell viability assay.

KG-1 = assay type: functional, cell-based;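 also: growth inhibition of KG-1 cells, read out by a cell viability assay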
Description: SANGER: Inhibition of human KG-1 cell growth in a cell viability assay.

KP-N-YS = assay type: functional, cell-based;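 also: cell viability assay measuring inhibition of cell line growth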
Description: SANGER: Inhibition of human KP-N-YS cell growth in a cell viability assay.

KU812 cell line = assay type: functional, cell-based;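 also: growth inhibition of KU812 cells, read out with a cell viability assay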
Description: SANGER: Inhibition of human KU812 cell growth in a cell viability assay.

KURAMOCHI = assay type: functional, cell-based;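 also: growth inhibition of KURAMOCHI cells, read out with a cell viability assay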
Description: SANGER: Inhibition of human KURAMOCHI cell growth in a cell viability assay.

LB2241-RCC = assay type: functional, cell-based;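 also: cell viability assay measuring how strongly the cultured human renal carcinoma line is prevented from growing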
Description: SANGER: Inhibition of human LB2241-RCC cell growth in a cell viability assay.

LB771-HNC = assay type: functional, cell-based;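 also: growth inhibition of LB771-HNC human cells, read out with a cell viability assay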
Description: SANGER: Inhibition of human LB771-HNC cell growth in a cell viability assay.

LS-513 = assay type: functional, cell-based
Description: SANGER: Inhibition of human LS-513 cell growth in a cell viability assay.

LU-134-A = assay type: functional, cell-based
Description: SANGER: Inhibition of human LU-134-A cell growth in a cell viability assay.

LU-139 = assay type: functional, cell-based
Description: SANGER: Inhibition of human LU-139 cell growth in a cell viability assay.

MC116 = assay type: functional, cell-based;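 also: growth inhibition of MC116 cells, read out with a cell viability assay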
Description: SANGER: Inhibition of human MC116 cell growth in a cell viability assay.

MHH-PREB-1 = assay type: functional, cell-based;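 also: cell viability assay measuring inhibition of proliferation of human MHH-PREB-1 cells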
Description: SANGER: Inhibition of human MHH-PREB-1 cell growth in a cell viability assay.

MLMA = assay type: functional, cell-based;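 also: growth inhibition of MLMA cells (human), determined through a cell viability readout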
Description: SANGER: Inhibition of human MLMA cell growth in a cell viability assay.

MOLT-4 = assay type: functional, cell-based;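 also: growth inhibition of MOLT-4 cells, determined with a cell viability readout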
Description: SANGER: Inhibition of human MOLT-4 cell growth in a cell viability assay.

MSTO-211H = assay type: functional, cell-based
Description: SANGER: Inhibition of human MSTO-211H cell growth in a cell viability assay.

MV4-11 = assay type: functional, cell-based, MV-4-11;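 also: cell viability readout measuring growth inhibition of human MV-4-11 cells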
Description: SANGER: Inhibition of human MV-4-11 cell growth in a cell viability assay.

MZ2-MEL = assay type: functional, cell-based;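 also: growth inhibition of MZ2-MEL cells read out with a cell viability assay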
Description: SANGER: Inhibition of human MZ2-MEL cell growth in a cell viability assay.

NB13 = assay type: functional, cell-based;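 also: cell viability readout measuring growth inhibition of human NB13 cells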
Description: SANGER: Inhibition of human NB13 cell growth in a cell viability assay.

NB69 = assay type: functional, cell-based;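 also: growth inhibition of NB69 cells, determined by a cell viability assay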
Description: SANGER: Inhibition of human NB69 cell growth in a cell viability assay.

NCI-H1770 = assay type: functional, cell-based;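 also: growth inhibition of NCI-H1770 cells determined with a viability readout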
Description: SANGER: Inhibition of human NCI-H1770 cell growth in a cell viability assay.

NCI-H446 = assay type: functional, cell-based;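 also: growth inhibition of NCI-H446 cells determined by a cell viability assay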
Description: SANGER: Inhibition of human NCI-H446 cell growth in a cell viability assay.

NCI-H510A = assay type: functional, cell-based;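 also: growth inhibition of NCI-H510A cells, read out with a cell viability assay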
Description: SANGER: Inhibition of human NCI-H510A cell growth in a cell viability assay.

SNU1 = assay type: functional, cell-based;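 also: growth inhibition of human NCI-SNU-1 cells, measured with a cell viability assay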
Description: SANGER: Inhibition of human NCI-SNU-1 cell growth in a cell viability assay.

NH-12 = assay type: functional, cell-based;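 also: growth inhibition of NH-12 cells, read out with a cell viability assay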
Description: SANGER: Inhibition of human NH-12 cell growth in a cell viability assay.

OCI-AML2 = assay type: functional, cell-based;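 also: growth inhibition of OCI-AML2 cells, read out with a cell viability assay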
Description: SANGER: Inhibition of human OCI-AML2 cell growth in a cell viability assay.

OMC-1 = assay type: functional, cell-based;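 also: growth inhibition of the OMC-1 cell line, measured by a cell viability assay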
Description: SANGER: Inhibition of human OMC-1 cell growth in a cell viability assay.

ONS-76 = assay type: functional, cell-based;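 also: growth inhibition of human ONS-76 cells, read out with a cell viability assay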
Description: SANGER: Inhibition of human ONS-76 cell growth in a cell viability assay.

RPMI-8226 = assay type: functional, cell-based
Description: SANGER: Inhibition of human RPMI-8226 cell growth in a cell viability assay.

Ramos-2G6-4C10 = assay type: functional, cell-based;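 also: growth inhibition of the cell line, measured by a cell viability read-out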
Description: SANGER: Inhibition of human Ramos-2G6-4C10 cell growth in a cell viability assay.

SF-539 = assay type: functional, cell-based;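 also: Read-out is a cell viability assay, with IC50 reflecting inhibition of cell growth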
Description: SANGER: Inhibition of human SF539 cell growth in a cell viability assay.

SK-MEL-1 = assay type: functional, cell-based;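 also: growth inhibition of human SK-MEL-1 cells, read out by a cell viability assay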
Description: SANGER: Inhibition of human SK-MEL-1 cell growth in a cell viability assay.

SK-N-FI = assay type: functional, cell-based;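 also: cell viability assay measuring growth inhibition of human SK-N-FI cells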
Description: SANGER: Inhibition of human SK-N-FI cell growth in a cell viability assay.

SNB-75 = assay type: functional, cell-based;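 also: cell viability assay measuring growth inhibition of human SNB-75 cells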
Description: SANGER: Inhibition of human SNB75 cell growth in a cell viability assay.

SW684 = assay type: functional, cell-based;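 also: growth inhibition of human SW684 cells, measured by a cell viability assay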
Description: SANGER: Inhibition of human SW684 cell growth in a cell viability assay.

SW 954 = assay type: functional, cell-based;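 also: growth inhibition of SW954 human cancer cells, read out as cell viability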
Description: SANGER: Inhibition of human SW954 cell growth in a cell viability assay.

SW982 = assay type: functional, cell-based;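 also: growth inhibition of SW982 cells, read out with a cell viability assay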
Description: SANGER: Inhibition of human SW982 cell growth in a cell viability assay.

697 = assay type: functional, cell-based
Description: SANGER: Inhibition of human 697 cell growth in a cell viability assay.

ALL-PO = assay type: functional, cell-based;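 also: growth inhibition of ALL-PO cells, read out by a cell viability assay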
Description: SANGER: Inhibition of human ALL-PO cell growth in a cell viability assay.

ATN-1 = assay type: functional, cell-based;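 also: growth inhibition of human ATN-1 cells, read out with a cell viability assay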
Description: SANGER: Inhibition of human ATN-1 cell growth in a cell viability assay.

BB30-HNC = assay type: functional, cell-based;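 also: growth inhibition of the cultured cell line, read out by a cell viability assay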
Description: SANGER: Inhibition of human BB30-HNC cell growth in a cell viability assay.

BB65-RCC = assay type: functional, cell-based;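 also: growth inhibition of the cell line, measured with a cell viability assay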
Description: SANGER: Inhibition of human BB65-RCC cell growth in a cell viability assay.

Becker = assay type: functional, cell-based;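 also: growth inhibition of Becker cells, read out with a cell viability assay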
Description: SANGER: Inhibition of human Becker cell growth in a cell viability assay.

TGBC24TKB = assay type: functional, cell-based;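 also: growth inhibition of human TGBC24TKB cells, read out with a cell viability assay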
Description: SANGER: Inhibition of human TGBC24TKB cell growth in a cell viability assay.

U-266 = assay type: functional, cell-based
Description: SANGER: Inhibition of human U-266 cell growth in a cell viability assay.

COc1cc(C)c(Sc2cnc(NC(=O)c3ccc(CNC(C)C(C)(C)C)cc3)s2)cc1C(=O)N1CCN(C(C)=O)CC1 (stereo not drawn)
IC50 (CP66-MEL): > 10.2 µM
IC50 (CTB-1): > 10.2 µM
IC50 (CW-2): > 10.2 µM
IC50 (D283 Med): > 10.2 µM
IC50 (D-502MG): > 10.2 µM
IC50 (DMS-114): > 10.2 µM
IC50 (DMS-79): > 10.2 µM
IC50 (DU-4475): > 10.2 µM
IC50 (EC-GI-10): > 10.2 µM
IC50 (ES1): 7.44 µM
IC50 (ES3): 8.9 µM
IC50 (ES6): 2.12 µM
IC50 (ES7): > 10.2 µM
IC50 (GB-1): 9.12 µM
IC50 (GI-1): > 10.2 µM
IC50 (HCC2218): > 10.2 µM
IC50 (HDLM-2): > 10.2 µM
IC50 (HT): > 10.2 µM
IC50 (IST-MES1): > 10.2 µM
IC50 (J-RT3-T3-5): > 10.2 µM
IC50 (JVM-3): > 10.2 µM
IC50 (KG-1): > 10.2 µM
IC50 (KP-N-YS): > 10.2 µM
IC50 (KU812 cell line): 8.97 µM
IC50 (KURAMOCHI): > 10.2 µM
IC50 (LB2241-RCC): > 10.2 µM
IC50 (LB771-HNC): > 10.2 µM
IC50 (LS-513): > 10.2 µM
IC50 (LU-134-A): > 10.2 µM
IC50 (LU-139): > 10.2 µM
IC50 (MC116): > 10.2 µM
IC50 (MHH-PREB-1): > 10.2 µM
IC50 (MLMA): > 10.2 µM
IC50 (MOLT-4): > 10.2 µM
IC50 (MSTO-211H): > 10.2 µM
IC50 (MV4-11): 5.88 µM
IC50 (MZ2-MEL): 6.62 µM
IC50 (NB13): > 10.2 µM
IC50 (NB69): 6.66 µM
IC50 (NCI-H1770): > 10.2 µM
IC50 (NCI-H446): > 10.2 µM
IC50 (NCI-H510A): > 10.2 µM
IC50 (SNU1): > 10.2 µM
IC50 (NH-12): > 10.2 µM
IC50 (OCI-AML2): 7.48 µM
IC50 (OMC-1): > 10.2 µM
IC50 (ONS-76): > 10.2 µM
IC50 (RPMI-8226): > 10.2 µM
IC50 (Ramos-2G6-4C10): > 10.2 µM
IC50 (SF-539): > 10.2 µM
IC50 (SK-MEL-1): > 10.2 µM
IC50 (SK-N-FI): > 10.2 µM
IC50 (SNB-75): 7.11 µM
IC50 (SW684): > 10.2 µM
IC50 (SW 954): 7.79 µM
IC50 (SW982): 2.91 µM
IC50 697: 6.66 µM
IC50 (ALL-PO): > 10.2 µM
IC50 (ATN-1): 9.51 µM
IC50 (BB30-HNC): 9.34 µM
IC50 (BB65-RCC): > 10.2 µM
IC50 (Becker): > 10.2 µM
IC50 (TGBC24TKB): > 10.2 µM
IC50 (U-266): > 10.2 µM

Cc1n[nH]c2ccc(-c3cncc(OC[C@@H](N)Cc4c[nH]c5ccccc45)c3)cc12 [A-443654]
IC50 (CP66-MEL): 0.459 µM
IC50 (CTB-1): 0.509 µM
IC50 (CW-2): > 1.02 µM
IC50 (D283 Med): > 1.02 µM
IC50 (D-502MG): > 1.02 µM
IC50 (DMS-114): 0.983 µM
IC50 (DMS-79): 0.75 µM
IC50 (DU-4475): 0.801 µM
IC50 (EC-GI-10): > 1.02 µM
IC50 (ES1): 0.739 µM
IC50 (ES3): > 1.02 µM
IC50 (ES6): 0.0915 µM
IC50 (ES7): > 1.02 µM
IC50 (GB-1): 0.199 µM
IC50 (GI-1): 0.187 µM
IC50 (HCC2218): 0.266 µM
IC50 (HDLM-2): > 1.02 µM
IC50 (HT): 0.373 µM
IC50 (IST-MES1): > 1.02 µM
IC50 (J-RT3-T3-5): 0.185 µM
IC50 (JVM-3): > 1.02 µM
IC50 (KG-1): > 1.02 µM
IC50 (KP-N-YS): > 1.02 µM
IC50 (KU812 cell line): 0.0965 µM
IC50 (KURAMOCHI): 0.244 µM
IC50 (LB2241-RCC): > 1.02 µM
IC50 (LB771-HNC): 0.222 µM
IC50 (LS-513): > 1.02 µM
IC50 (LU-134-A): 0.363 µM
IC50 (LU-139): 0.367 µM
IC50 (MC116): 0.137 µM
IC50 (MHH-PREB-1): 0.271 µM
IC50 (MLMA): 0.447 µM
IC50 (MOLT-4): 0.131 µM
IC50 (MSTO-211H): > 1.02 µM
IC50 (MV4-11): 0.0577 µM
IC50 (MZ2-MEL): > 1.02 µM
IC50 (NB13): 0.332 µM
IC50 (NB69): 0.227 µM
IC50 (NCI-H1770): > 1.02 µM
IC50 (NCI-H446): 0.395 µM
IC50 (NCI-H510A): 0.229 µM
IC50 (SNU1): 0.4 µM
IC50 (NH-12): > 1.02 µM
IC50 (OCI-AML2): 0.21 µM
IC50 (OMC-1): 0.191 µM
IC50 (ONS-76): 0.444 µM
IC50 (RPMI-8226): 0.67 µM
IC50 (Ramos-2G6-4C10): 0.17 µM
IC50 (SF-539): > 1.02 µM
IC50 (SK-MEL-1): > 1.02 µM
IC50 (SK-N-FI): 0.845 µM
IC50 (SNB-75): 0.116 µM
IC50 (SW684): > 1.02 µM
IC50 (SW 954): 0.177 µM
IC50 (SW982): 0.166 µM
IC50 697: 0.0328 µM
IC50 (ALL-PO): 0.797 µM
IC50 (ATN-1): > 1.02 µM
IC50 (BB30-HNC): 0.22 µM
IC50 (BB65-RCC): 0.597 µM
IC50 (Becker): 0.303 µM
IC50 (TGBC24TKB): 0.81 µM
IC50 (U-266): > 1.02 µM
